Experimental data taken from publication PMC10762078, “Role of UPF1-LIN28A interaction during early differentiation of pluripotent stem cells” (Nature Communications, 2024).
Ends that are not written are not given here.

Experiments:
[1] = tested on: CHA15 cells; test: Flow cytometry (FACS) of OCT4- and NANOG-positive cells (Fig. 6c, Supplementary Fig. 6b); format: cell-based, human; conditions: for NANOG-positive cells, FACS (relative), mean / OCT4-positive cells, FACS (relative), mean: CHA15, CPP-peptide 10 μM, mean of 3 sets; for NANOG FACS, difference between means vs P1 ± SEM / OCT4 FACS, difference between means vs P1 ± SEM: CHA15, vs CPP-P1
Method: (§1) For CPP-conjugated peptide delivery, HeLa, 293T, and PA-1 cells were incubated with CPP-conjugated peptides or CPP-FITC at 2 μM in DMEM with 10% FBS for 12 h a day before cell harvest. hPSCs were treated with CPP-conjugated peptides at 10 μM in mTeSR Plus Medium, and the peptide-containing medium was changed every day over 10 days. The ROCK inhibitor (Tocris Bioscience, Y-27632) treated-hPSCs were dissociated into single cells using Accutase (Merck, SCR005) and differentiated into ectoderm, mesoderm, and endoderm using the STEMdiff Trilineage Differentiation Kit ([…] Technologies, 05230) following the manufacturer’s protocol. Differentiated cells treated with CPP-conjugated peptides were analysed at 0, 3, and 5 days for ectoderm and endoderm, and at 0, 3, and 4 days for mesoderm.
To evaluate the relative cell number expressing the indicated proteins, CHA15 cells with the indicated CPP-conjugated peptide were fixed with BD Cytofix Fixation Buffer (BD Biosciences Pharmingen, 554655) followed by permeabilization with 0.1% BSA/PBS solution supplemented with 10% NGS and 0.3% Triton X-100 for 1 h at 4 °C. After washing, cells were incubated with the primary antibodies (OCT4 1:1000, NANOG 1:1000, DLK1 1:1000, SOX2 1:1000, LHX2 1:1000) and then, secondary antibody, Alexa Fluor 488 (1:1000), was applied. The positive cells were determined using flow cytometry (FACSCanto, BD Pharmingen), and data was analysed using the Flow Jo-v10 software program.

[2] = tested on: CHA15 cells; test: RT-qPCR of indicated transcripts (NMD targets, pluripotency markers) in CPP-peptide-treated CHA15 cells (Supplementary Fig. 6d); format: cell-based, human; conditions: Fig. s6d; for DLK1 mRNA level, mean / FRZB mRNA level, mean / GLI2 mRNA level, mean / MAPK7 mRNA level, mean / NANOG mRNA level, mean / NNAT mRNA level, mean / PDZD4 mRNA level, mean / POU5F1 mRNA level, mean / SERPINB9 mRNA level, mean / SIX3 mRNA level, mean / SLC7A5 mRNA level, mean / SNAP25 mRNA level, mean / SOX2 mRNA level, mean / TRMT61A mRNA level, mean / WLS mRNA level, mean: mean of 3 replicates
Method: as §1, with “mesoderm. […]” for “mesoderm.”
cDNA was synthesised using RevertAid Reverse Transcriptase (Thermo Fisher Scientific, EP0441) with synthesised random hexamer (Macrogen) for total RNA or stem-loop primers for miRNA. For RT-qPCR reactions, the SensiFAST SYBR No-ROX kit (Meridian Bioscience) was used according to the manufacturer’s protocol. All data analysis and visualisation were conducted using R 3.6.1 [www.r-project.org] or GraphPad Prism 10. RT primers for miRNA and RT-qPCR primer sequences are provided in Supplementary Data 6. […]
Scale bars, 100 μm . d (Corresponding to Fig. 6d) RT -qPCR was perform ed to evaluate the level of indicated transcripts upon the indicated peptide treatm ent in CHA15 cells. e T ranscriptom e analysis was perf orm ed using signif icantly changed transcripts (p < 0.05) f rom siLIN28A or siControl in the indicated CPP-peptide treated CHA15 cells. […]
5p and m iR-16- 5p was shown as CDF graphs. T he relative level of m RNA was norm alised to that of U6 snRNA in (c, d, and f). K–S tests were used for e and f. Unpaired Student’s t-test was used for c , d, and f . * p < 0.05, ** p < 0.01, *** p < 0.001. Exact p -values were provided in Source data. Data are presented as m ean values ± SEM. All statistical test used were two- sided. T he m inim um num ber of independent biological replicate experim ents was a and e n = 2, b–d and f n = 3. T he experim ents were conducted three tim es, each iteration producing consistent results.

[3] = unpaired t test, two-tailed, df=4

Substance | NANOG-positive cells, FACS (relative), mean [1] | OCT4-positive cells, FACS (relative), mean [1] | NANOG FACS, difference between means vs P1 ± SEM [1] | OCT4 FACS, difference between means vs P1 ± SEM [1] | DLK1 mRNA level, mean [2] | FRZB mRNA level, mean [2] | GLI2 mRNA level, mean [2] | MAPK7 mRNA level, mean [2] | NANOG mRNA level, mean [2] | NNAT mRNA level, mean [2] | PDZD4 mRNA level, mean [2] | POU5F1 mRNA level, mean [2] | SERPINB9 mRNA level, mean [2] | SIX3 mRNA level, mean [2] | SLC7A5 mRNA level, mean [2] | SNAP25 mRNA level, mean [2] | SOX2 mRNA level, mean [2] | TRMT61A mRNA level, mean [2] | WLS mRNA level, mean [2] | FRZB, difference between means ± SEM vs. P1 [2, 3] | also measured
KKKWCRKKKSSADEKRYRALKRTAERELLMNA [P8] | 0.7195 | 0.7944 | -0.2805 ± 0.006838 | -0.2056 ± 0.01612 | 56.31 | 8.725 | 0.6516 | 0.7487 | 0.4762 | 3.136 | 0.2348 | 0.5449 | 0.7287 | 16.62 | 0.3065 | 0.3657 | 1.107 | 0.5794 | 7.117 | 7.724 ± 0.7174 | DLK1, difference between means ± SEM vs. P1 [2, 3]: 55.31 ± 2.539; GLI2, difference between means ± SEM vs. P1 [2, 3]: -0.3484 ± 0.08883; MAPK7, difference between means ± SEM vs. P1 [2, 3]: -0.2513 ± 0.07831; NANOG, difference between means ± SEM vs. P1 [2, 3]: -0.5239 ± 0.0638; NNAT, difference between means ± SEM vs. P1 [2, 3]: 2.136 ± 0.5570; PDZD4, difference between means ± SEM vs. P1 [2, 3]: -0.7652 ± 0.01959; POU5F1, difference between means ± SEM vs. P1 [2, 3]: -0.4552 ± 0.05944; SERPINB9, difference between means ± SEM vs. P1 [2, 3]: -0.2711 ± 0.04259; SIX3, difference between means ± SEM vs. P1 [2, 3]: 15.62 ± 1.865; SLC7A5, difference between means ± SEM vs. P1 [2, 3]: -0.6935 ± 0.02913; SNAP25, difference between means ± SEM vs. P1 [2, 3]: -0.6344 ± 0.08552; SOX2, difference between means ± SEM vs. P1 [2, 3]: 0.1072 ± 0.1176; TRMT61A, difference between means ± SEM vs. P1 [2, 3]: -0.4206 ± 0.05922; WLS, difference between means ± SEM vs. P1 [2, 3]: 6.117 ± 0.3119
N-MPELQKLQQLKDE-C [P2, peptide derived from the UPF1 (419–700) domain] | 0.969 | 0.9851 | -0.03103 ± 0.01235 | -0.01489 ± 0.005688 | – | – | – | – | – | 0.9363 | – | – | 0.9791 | – | – | – | – | – | – | -0.02698 ± 0.06622 | GLI2, difference between means ± SEM vs. P1 [2, 3]: -0.05239 ± 0.08994; MAPK7, difference between means ± SEM vs. P1 [2, 3]: 0.03902 ± 0.06368; NNAT, difference between means ± SEM vs. P1 [2, 3]: -0.06363 ± 0.1386; PDZD4, difference between means ± SEM vs. P1 [2, 3]: 0.05466 ± 0.04504; SERPINB9, difference between means ± SEM vs. P1 [2, 3]: -0.02067 ± 0.08291; SIX3, difference between means ± SEM vs. P1 [2, 3]: 0.1242 ± 0.09936; SLC7A5, difference between means ± SEM vs. P1 [2, 3]: 0.1166 ± 0.05272; SNAP25, difference between means ± SEM vs. P1 [2, 3]: 0.01594 ± 0.05751; SOX2, difference between means ± SEM vs. P1 [2, 3]: -0.1171 ± 0.06917; TRMT61A, difference between means ± SEM vs. P1 [2, 3]: 0.0576 ± 0.08417; WLS, difference between means ± SEM vs. P1 [2, 3]: -0.1429 ± 0.08376
N-QKLDQKELQLEPM-C [P1, reference compound] | 1 | 1 | – | – | 1 | 1 | 1 | 1 | 1 | – | 1 | 1 | – | 1 | 1 | 1 | 1 | 1 | 1 | – | –
